Source: patent US10258613B2, “Compositions for treating retinal degeneration and methods of production and use thereof” (The Board of Regents of the University of Oklahoma, priority 2014, dated 2019)
Entries after “also recorded” stand apart in the source; their conditions may differ.

How the values were obtained:
[1] = tested on: rod photoreceptors in Gucy2e−/− mice; experiment: Retinal morphometric analysis (ONL nuclei count, ONL thickness) after T3 treatment; type: in vivo, mouse
Method: (§1) For anti-thyroid treatment, mother Rpe65^−/− and cpfl1 mice were treated with methimazole (MMI) (Sigma-Aldrich, St. Louis, Mo., 0.05% wt/vol) and sodium perchlorate monohydrate (PM) (Sigma-Aldrich, 1.0% wt/vol) in drinking water, beginning on the day they delivered pups and the treatment (for both mother and pups) continued for 30 days. In a separate experiment, post-weaning cpfl1 mice received MMI and PM treatment for 30 days, beginning on P25. For T3 treatment, Cngb3^−/− and Gucy2e^−/− mice received T3 (Sigma-Aldrich, 0.1 μg/g body weight, subcutaneous injection once each day) or vehicle (saline) for 30 days, beginning on P1. At the end of the treatments, blood samples were collected for measurements of serum T3 levels, and eyes and retinas were collected for evaluating cone density and cone specific protein/mRNA expression. For T3-treated mice, blood samples were collected around 24 hours after the last injection.
(§2) Mouse retinal whole mounts or cross sections were prepared for immunohistochemical analysis as described previously (Ding et al., 2009; and Xu et al., 2011). […] The cornea and lens were then removed, and the eyes were fixed in 4% PFA in PBS (vol/vol) at room temperature for another 4-6 hours. […] Paraffin sections (5 μm thickness) passing vertically through the retina (along the vertical meridian passing through the optic nerve head) were prepared using a Leica microtome.
(§3) Retina cross sections labeled with DAPI (Vector Laboratory Inc., Burlingame, Calif.) were used for morphometric analysis to evaluate outer nuclear layer (ONL) integrity/rod survival as described previously (Xu et al., 2012). In each hemisphere, the number of nuclei in the ONL and the thickness of the ONL were measured at 0.24 mm intervals in nine defined areas, starting at the optic nerve head and extending along the vertical meridian toward the dorsal and ventral ora serrata. The mean number of nuclei and ONL thickness at the dorsal and ventral locations was then calculated. In each experimental group, two-three sections from each of the retinas of three-four mice were measured. The averages of the measurements in each location were plotted, and the measurements in each hemisphere were analyzed and graphed using GraphPad Prism software (GraphPad Software, San Diego, Calif.).

[2] = tested on: rod photoreceptors in Cngb3−/− mice; experiment: as above; type: in vivo, mouse
Method: as §1, §2, §3

cones = settings: mice; effect reversed by deletion of TRβ2 gene; cited from earlier work
Weri RB-1 cell line = experiment: M-opsin and S-opsin expression (quantitative RT-PCR) after T3 with or without TR antagonists; type: cell-based; settings: Weri cells; for inhibition of T3-induced M-opsin expression / inhibition of the effects of T3 treatment on M-opsin and S-opsin expression: dose-dependent pattern
Method: (§4) The cone precursor Weri RB-1 cell line was used to determine the antagonistic activity of the TR antagonists, NH-3 and 1-850. Expression levels of M-opsin and S-opsin in Weri cells following T3 treatment in the presence and absence of TR antagonists were analyzed by quantitative RT-PCR. […] NH-3, 1-850, or vehicle was delivered to the eye by intravitreal injection at postnatal day 5 (P5), and retinas and eyes were collected on P24. Cone survival was evaluated by examining cone density on retinal whole mounts and retinal sections by immunohistochemical approaches.

[3] = Serum T3 levels by mouse/rat T3 ELISA in anti-thyroid- or T3-treated mice; type: in vivo; settings: for increase of serum T3 levels compared with untreated controls: around 24 hours after last injection; for concentration at 24 h: mouse, serum, sc, 0.1 μg/g body weight, T3 0.1 μg/g s.c. once each day 30 days from P1, around 24 hours after last injection
Method: as §1
Serum triiodothyronine (T3) levels were analyzed using a mouse/rat T3 ELISA kit (Calbiotech Inc., Spring Valley, Calif.) with a total T3 detection limit at 0.25 ng/ml. Briefly, 25 μl of serum samples and standards with different T3 concentrations were added into the assigned wells, the assays were performed by following the manufacturer's instructions, and the absorbance of each well was read at 450 nm (SPECTRAMAX® 190 Microplate Spectrophotometer, Molecular Devices LLC, Sunnyvale, Calif.). The standard curve was generated by using a three-parameter exponential non-linear regression in SIGMAPLOT® software (Systat Software, Inc., San Jose, Calif.), and the sample T3 concentration was then calculated according to the three-parameter exponential equation.

cones in Cngb3−/− mice = experiment: Cone density by immunofluorescence labeling after T3 treatment; type: in vivo, mouse
Method: as §1, §2
(§5) Immunohistochemical labeling of cones using antibodies against peanut agglutinin (PNA), cone opsin, cone arrestin (CAR), and guanine nucleotide-binding protein G(t) subunit alpha-2 (GNAT2) was performed as described previously (Ding et al., 2009). Briefly, retinal whole mounts or sections were blocked in Hank's balanced salt solution containing 5% bovine serum albumin (BSA) and 0.5% Triton-X 100 for 1 hour at room temperature. Primary antibody incubation (anti-M-opsin, 1:500; anti-S-opsin, 1:500; anti-CAR, 1:500; and anti-GNAT2, 1:500) was performed at room temperature for 1 hour. Following ALEXA FLUOR®-488 or -568 (Molecular Probes, Inc., Eugene, Oreg.) or FITC-conjugated secondary antibody incubation and rinses, slides were mounted and cover-slipped. PNA immunohistochemistry was performed using biotinylated PNA (1:50) and streptavidin-FITC (1:200). Fluorescent signals were imaged using an Olympus AX70 fluorescence microscope (Olympus Corp., Center Valley, Pa.) with QCapture imaging software (QImaging Corp., Surrey, BC, Canada) or an Olympus IX81-FV500 confocal laser scanning microscope (Olympus, Melville, N.Y.) (using excitation wavelengths of 543 nm for ALEXA FLUOR®-568 and 488 nm for FITC) and FLUOVIEW® imaging software (Olympus, Melville, N.Y.). Evaluation of cone density on retinal whole mounts and retinal cross-sections was performed as described previously (Xu et al., 2011; and Komeima et al., 2006). For retinal whole mounts, images were taken using a 40× objective on an Olympus microscope, approximately 1.0 mm from the optic nerve in the center of each quadrant (FIG. 1). Image scale was calibrated and cones were counted in four regions, each with dimensions of 317 μm×317 μm, using ImageJ software (ImageJ software website from National Institutes of Health, Bethesda, Md.). Cone density on retinal cross section was evaluated by counting the number of cones present in the dorsal and ventral areas. The averages of the counts were analyzed and graphed using GraphPad Prism software (GraphPad Software, San Diego, Calif.).

cones in Gucy2e−/− mice = experiment: as above; type: in vivo, mouse
Method: as §1, §2, §5

cones in Rpe65−/− mice = experiment: Cone density after intravitreal injection of TR antagonists; type: in vivo, mouse; settings: for cone death, in words: intravitreal delivery; for cone density increase: intravitreal injection at P5 (1.0 μl of 5 mM NH-3 or 10 mM 1-850), collected P24; for cone protection, in words: intravitreal injection at P5, P24, PNA staining
Method: The cornea and lens were then removed, and the eyes were fixed in 4% PFA in PBS (vol/vol) at room temperature for another 4-6 hours. […] Paraffin sections (5 μm thickness) passing vertically through the retina (along the vertical meridian passing through the optic nerve head) were prepared using a Leica microtome.
Briefly, retinal whole mounts or sections were blocked in Hank's balanced salt solution containing 5% bovine serum albumin (BSA) and 0.5% Triton-X 100 for 1 hour at room temperature. Primary antibody incubation (anti-M-opsin, 1:500; anti-S-opsin, 1:500; anti-CAR, 1:500; and anti-GNAT2, 1:500) was performed at room temperature for 1 hour. […] PNA immunohistochemistry was performed using biotinylated PNA (1:50) and streptavidin-FITC (1:200). […] For retinal whole mounts, images were taken using a 40× objective on an Olympus microscope, approximately 1.0 mm from the optic nerve in the center of each quadrant (FIG. 1). […] Cone density on retinal cross section was evaluated by counting the number of cones present in the dorsal and ventral areas. The averages of the counts were analyzed and graphed using GraphPad Prism software (GraphPad Software, San Diego, Calif.).
as §4

[4] = T3 0.1 μg/g s.c. daily 30 days from P1

SMILES: N[C@@H](Cc1cc(I)c(Oc2ccc(O)c(I)c2)c(I)c1)C(=O)O [T3, Triiodothyronine]
- reduction of average number of nuclei in the ONL vs untreated controls ([1]; T3 30 days): about 30%
- rod photoreceptor viability, in words ([1]; T3 30 days from P1): causes rod degeneration
- reduction of average number of nuclei in the ONL vs untreated controls ([2]; T3 30 days): about 30%
- rod photoreceptor viability, in words ([2]; T3 30 days from P1): causes rod degeneration
- cone viability (cones): cause cone death
- M-opsin expression (Weri RB-1 cell line; T3 treatment): increased M-opsin expression
- S-opsin expression (Weri RB-1 cell line; T3 treatment): decreased S-opsin expression
- increase of serum T3 levels compared with untreated controls ([3]; Cngb3−/− mice): about 8 fold
- increase of serum T3 levels compared with untreated controls ([3]; Gucy2e−/− mice): about 6 fold
- concentration at 24 h ([3]; Cngb3−/− mice): 3.85 ± 0.55 nM
- concentration at 24 h ([3]; Gucy2e−/− mice): 3.43 ± 0.48 nM
- reduction of CAR-labeled cones vs untreated (cones in Cngb3−/− mice; [4]): about 40%
- reduction of PNA-labeled cones vs untreated (cones in Cngb3−/− mice; [4]): about 30%
- M-opsin labeled-cones vs untreated controls (cones in Cngb3−/− mice; T3 30 days from P1): greatly reduced
- S-opsin labeled-cones vs untreated controls (cones in Cngb3−/− mice; T3 30 days from P1): greatly reduced
- cone degeneration / cone density, in words (cones in Cngb3−/− mice; T3 30 days from P1): significantly increased; also recorded: significantly reduced; also recorded: deteriorated cones
- cone density decrease (cones in Cngb3−/− mice; summary statement): about 40%
- reduction of density of cones labeled by CAR vs untreated controls (cones in Gucy2e−/− mice; [4]): about 30%
- reduction of density of cones labeled by PNA vs untreated controls (cones in Gucy2e−/− mice; [4]): about 30%
- reduction of density of cones labeled by cone opsin vs untreated controls (cones in Gucy2e−/− mice; [4]): about 30%
- cone degeneration / cone density, in words (cones in Gucy2e−/− mice; T3 30 days from P1): significantly increased; also recorded: significantly diminished cone density; also recorded: deteriorated cones
- cone density decrease (cones in Gucy2e−/− mice; summary statement): about 40%

SMILES: Cc1cc(OCC(=O)O)cc(C)c1Cc1cc(C#Cc2ccc([N+](=O)[O-])cc2)c(O)c(C(C)C)c1 [NH-3]
- cone death, in words (cones in Rpe65−/− mice): reduced cone death
- cone density increase (cones in Rpe65−/− mice): about 35%
- cone protection, in words (cones in Rpe65−/− mice): protected cones
- inhibition of T3-induced M-opsin expression (Weri RB-1 cell line): inhibited T3-induced M-opsin expression
- inhibition of the effects of T3 treatment on M-opsin and S-opsin expression (Weri RB-1 cell line): inhibited

SMILES: O=C(C=C1CCN(c2ccc([N+](=O)[O-])cc2)CC1)NNC(=O)Nc1cccc(C(F)(F)F)c1 [1-850]
- cone death, in words (cones in Rpe65−/− mice): reduced cone death
- cone density increase (cones in Rpe65−/− mice): about 35%
- cone protection, in words (cones in Rpe65−/− mice): protected cones
- inhibition of T3-induced M-opsin expression (Weri RB-1 cell line): inhibited T3-induced M-opsin expression
- inhibition of the effects of T3 treatment on M-opsin and S-opsin expression (Weri RB-1 cell line): inhibited
